In the NIST ThermoML archive (doi:10.1016/j.fluid.2007.10.013):

Assay: xn = mol fraction of the nth substance listed
Conditions: 101 kPa, Liquid, Taylor dispersion method, x1 = 0

binary diffusion coefficient (293.2 K) [m2/s] | binary diffusion coefficient (298.2 K) [m2/s] | binary diffusion coefficient (303.2 K) [m2/s] | binary diffusion coefficient (313.2 K) [m2/s] | binary diffusion coefficient (323.2 K) [m2/s] | binary diffusion coefficient (333.2 K) [m2/s] | SMILES
7.26e-10 | 8.39e-10 | 9.39e-10 | 1.19e-09 | 1.47e-09 | 1.78e-09 | NC(CCO)C(=O)O (stereo not drawn) [DL-2-amino-4-hydroxybutanoic acid] + O
7.72e-10 | 8.8e-10 | 9.91e-10 | 1.26e-09 | 1.55e-09 | 1.88e-09 | NC(CO)C(=O)O (centres undefined) [(.+-.)-serine] + O
6.97e-10 | 7.96e-10 | 9.06e-10 | 1.14e-09 | 1.42e-09 | 1.72e-09 | C[C@H](O)[C@H](N)C(=O)O [DL-allothreonine] + O
6.91e-09 | 7.99e-09 | 9.04e-09 | 1.14e-08 | 1.43e-08 | 1.72e-08 | C[C@@H](O)[C@H](N)C(=O)O [DL-threonine] + O
